Experimental data reported in ChEMBL document CHEMBL2331514, “Structure-based design and synthesis of novel pseudosaccharine derivatives as antiproliferative agents and kinase inhibitors” (Eur J Med Chem, 2013).

Assays:
UACC-257 = test: Cytotoxicity against human UACC257 cells assessed as growth inhibition at 10 uM after 48 hrs by SRB assay; type: functional; conditions: UACC-257, 48 h, read-out: GI
Malme-3M = test: Cytotoxicity against human MALME-3M cells assessed as growth inhibition at 10 uM after 48 hrs by SRB assay; type: functional; conditions: read-out: GI
TK-10 = test: Cytotoxicity against human TK10 cells assessed as growth inhibition at 10 uM after 48 hrs by SRB assay; type: functional; conditions: TK-10, 48 h, read-out: GI
SNB-75 = test: Cytotoxicity against human SNB75 cells assessed as growth inhibition at 10 uM after 48 hrs by SRB assay; type: functional; conditions: SNB-75, 48 h, read-out: GI
MCF7 = test: Cytotoxicity against human MCF7 cells assessed as growth inhibition at 10 uM after 48 hrs by SRB assay; type: functional; conditions: MCF7, 48 h, read-out: GI
LOX IMVI = test: Cytotoxicity against human LOXIMVI cells assessed as growth inhibition at 10 uM after 48 hrs by SRB assay; type: functional; conditions: read-out: GI
RPMI-8226 = test: Cytotoxicity against human RPMI8226 cells assessed as growth inhibition at 10 uM after 48 hrs by SRB assay; type: functional; conditions: RPMI-8226, 48 h, read-out: GI
SR = test: Cytotoxicity against human SR cells assessed as growth inhibition at 10 uM after 48 hrs by SRB assay; type: functional; conditions: read-out: GI
[1] = Partition coefficient, log P of the compound; type: physicochemical; conditions: octanol/water
SF-268 = test: Cytotoxicity against human SF268 cells assessed as growth inhibition at 10 uM after 48 hrs by SRB assay; type: functional; conditions: SF-268, 48 h, read-out: GI
NCI-H23 = test: Cytotoxicity against human NCI-H23 cells assessed as growth inhibition at 10 uM after 48 hrs by SRB assay; type: functional; conditions: NCI-H23, 48 h, read-out: GI
786-0 = test: Cytotoxicity against human 786-0 cells assessed as growth inhibition at 10 uM after 48 hrs by SRB assay; type: functional; conditions: 786-0, 48 h, read-out: GI
MOLT-4 = test: Cytotoxicity against human MOLT4 cells assessed as growth inhibition at 10 uM after 48 hrs by SRB assay; type: functional; conditions: MOLT-4, 48 h, read-out: GI
OVCAR-8 = test: Cytotoxicity against human OVCAR8 cells assessed as growth inhibition at 10 uM after 48 hrs by SRB assay; type: functional; conditions: OVCAR-8, 48 h, read-out: GI
NCI-H460 = test: Cytotoxicity against human NCI-H460 cells assessed as growth inhibition at 10 uM after 48 hrs by SRB assay; type: functional; conditions: NCI-H460, 48 h, read-out: GI
HL-60(TB) = test: Cytotoxicity against human HL-60(TB) cells assessed as growth inhibition at 10 uM after 48 hrs by SRB assay; type: functional; conditions: HL-60, 48 h, read-out: GI
CAKI-1 = test: Cytotoxicity against human Caki1 cells assessed as growth inhibition at 10 uM after 48 hrs by SRB assay; type: functional; conditions: CAKI-1, 48 h, read-out: GI
T47D = test: Cytotoxicity against human T47D cells assessed as growth inhibition at 10 uM after 48 hrs by SRB assay; type: functional; conditions: read-out: GI
M14 = test: Cytotoxicity against human M14 cells assessed as growth inhibition at 10 uM after 48 hrs by SRB assay; type: functional; conditions: M14, 48 h, read-out: GI
SK-MEL-5 = test: Cytotoxicity against human SK-MEL-5 cells assessed as growth inhibition at 10 uM after 48 hrs by SRB assay; type: functional; conditions: SK-MEL-5, 48 h, read-out: GI
U-251 = test: Cytotoxicity against human U251 cells assessed as growth inhibition at 10 uM after 48 hrs by SRB assay; type: functional; conditions: U-251, 48 h, read-out: GI
CCRF-CEM = test: Cytotoxicity against human CCRF-CEM cells assessed as growth inhibition at 10 uM after 48 hrs by SRB assay; type: functional; conditions: read-out: GI
MDA-MB-231 = test: Cytotoxicity against human MDA-MB-231 cells assessed as growth inhibition at 10 uM after 48 hrs by SRB assay; type: functional; conditions: MDA-MB-231, 48 h, read-out: GI
COLO 205 = test: Cytotoxicity against human COLO205 cells assessed as growth inhibition at 10 uM after 48 hrs by SRB assay; type: functional; conditions: COLO 205, 48 h, read-out: GI
HOP-62 = test: Cytotoxicity against human HOP62 cells assessed as growth inhibition at 10 uM after 48 hrs by SRB assay; type: functional; conditions: HOP-62, 48 h, read-out: GI
NCI-H522 = test: Cytotoxicity against human NCI-H522 cells assessed as growth inhibition at 10 uM after 48 hrs by SRB assay; type: functional; conditions: NCI-H522, 48 h, read-out: GI
BT-549 = test: Cytotoxicity against human BT549 cells assessed as growth inhibition at 10 uM after 48 hrs by SRB assay; type: functional; conditions: BT-549, 48 h, read-out: GI
NCI-H322M = test: Cytotoxicity against human NCI-H322M cells assessed as growth inhibition at 10 uM after 48 hrs by SRB assay; type: functional; conditions: read-out: GI
DU-145 = test: Cytotoxicity against human DU145 cells assessed as growth inhibition at 10 uM after 48 hrs by SRB assay; type: functional; conditions: DU-145, 48 h, read-out: GI
SF-539 = test: Cytotoxicity against human SF539 cells assessed as growth inhibition at 10 uM after 48 hrs by SRB assay; type: functional; conditions: SF-539, 48 h, read-out: GI
SK-OV-3 = test: Cytotoxicity against human SKOV3 cells assessed as growth inhibition at 10 uM after 48 hrs by SRB assay; type: functional; conditions: SK-OV-3, 48 h, read-out: GI
UO-31 = test: Cytotoxicity against human UO31 cells assessed as growth inhibition at 10 uM after 48 hrs by SRB assay; type: functional; conditions: UO-31, 48 h, read-out: GI
MDA-MB-435 = test: Cytotoxicity against human MDA-MB-435 cells assessed as growth inhibition at 10 uM after 48 hrs by SRB assay; type: functional; conditions: MDA-MB-435, 48 h, read-out: GI
HOP-92 = test: Cytotoxicity against human HOP92 cells assessed as growth inhibition at 10 uM after 48 hrs by SRB assay; type: functional; conditions: HOP-92, 48 h, read-out: GI
[2] = Cytotoxicity against human EKVX cells assessed as growth inhibition at 10 uM after 48 hrs by SRB assay; type: functional; conditions: read-out: GI
ACHN = test: Cytotoxicity against human ACHN cells assessed as growth inhibition at 10 uM after 48 hrs by SRB assay; type: functional; conditions: read-out: GI
OVCAR-3 = test: Cytotoxicity against human OVCAR3 cells assessed as growth inhibition at 10 uM after 48 hrs by SRB assay; type: functional; conditions: OVCAR-3, 48 h, read-out: GI
SN12C = test: Cytotoxicity against human SN12C cells assessed as growth inhibition at 10 uM after 48 hrs by SRB assay; type: functional; conditions: read-out: GI
HCT-15 = test: Cytotoxicity against human HCT15 cells assessed as growth inhibition at 10 uM after 48 hrs by SRB assay; type: functional; conditions: HCT-15, 48 h, read-out: GI

Row | SMILES | inhibition of growth at 10 µM (UACC-257) [%] | inhibition of growth at 10 µM (Malme-3M) [%] | inhibition of growth at 10 µM (TK-10) [%] | inhibition of growth at 10 µM (SNB-75) [%] | inhibition of growth at 10 µM (MCF7) [%] | inhibition of growth at 10 µM (LOX IMVI) [%] | inhibition of growth at 10 µM (RPMI-8226) [%] | inhibition of growth at 10 µM (SR) [%] | logP [1] | inhibition of growth at 10 µM (SF-268) [%] | inhibition of growth at 10 µM (NCI-H23) [%] | inhibition of growth at 10 µM (786-0) [%] | inhibition of growth at 10 µM (MOLT-4) [%] | inhibition of growth at 10 µM (OVCAR-8) [%] | inhibition of growth at 10 µM (NCI-H460) [%] | inhibition of growth at 10 µM (HL-60(TB)) [%] | inhibition of growth at 10 µM (CAKI-1) [%] | inhibition of growth at 10 µM (T47D) [%] | inhibition of growth at 10 µM (M14) [%] | inhibition of growth at 10 µM (SK-MEL-5) [%] | also measured
1 | O=C(Nc1ccc(NC2=NS(=O)(=O)c3ccccc32)cc1)Nc1cccc(Br)c1 | 9 | 17 | -2 | 15 | 44 | 23 | 8 | 27 | 2.24 | 23 | 14 | 27 | 37 | 17 | 1 | 1 | 5 | 60 | 22 | 45 | inhibition of growth at 10 µM (U-251): 39%; inhibition of growth at 10 µM (CCRF-CEM): 39%; inhibition of growth at 10 µM (MDA-MB-231): 47%; inhibition of growth at 10 µM (COLO 205): -11%; inhibition of growth at 10 µM (HOP-62): 24%; inhibition of growth at 10 µM (NCI-H522): 14%; inhibition of growth at 10 µM (BT-549): 23%; inhibition of growth at 10 µM (NCI-H322M): 29%; inhibition of growth at 10 µM (DU-145): 19%; inhibition of growth at 10 µM (SF-539): 36%; inhibition of growth at 10 µM (SK-OV-3): 4%; inhibition of growth at 10 µM (UO-31): 13%; inhibition of growth at 10 µM (MDA-MB-435): 11%; inhibition of growth at 10 µM (HOP-92): 36%; inhibition of growth at 10 µM [2]: -4%; inhibition of growth at 10 µM (ACHN): 3%; inhibition of growth at 10 µM (OVCAR-3): 22%; inhibition of growth at 10 µM (SN12C): 21%; inhibition of growth at 10 µM (HCT-15): -6%
2 | O=C(Nc1ccc(OC2=NS(=O)(=O)c3ccccc32)cc1)Nc1ccccc1Cl | -17 | 2 | -17 | 18 | 23 | 15 | 7 | 9 | 3.55 | 14 | 8 | 11 | 24 | 1 | -4 | 25 | 6 | 8 | 2 | 9 | inhibition of growth at 10 µM (U-251): 0%; inhibition of growth at 10 µM (CCRF-CEM): 57%; inhibition of growth at 10 µM (MDA-MB-231): 63%; inhibition of growth at 10 µM (COLO 205): -17%; inhibition of growth at 10 µM (HOP-62): -8%; inhibition of growth at 10 µM (NCI-H522): 10%; inhibition of growth at 10 µM (BT-549): 22%; inhibition of growth at 10 µM (NCI-H322M): 2%; inhibition of growth at 10 µM (DU-145): 3%; inhibition of growth at 10 µM (SF-539): 6%; inhibition of growth at 10 µM (SK-OV-3): -7%; inhibition of growth at 10 µM (UO-31): 33%; inhibition of growth at 10 µM (MDA-MB-435): 5%; inhibition of growth at 10 µM (HOP-92): -3%; inhibition of growth at 10 µM [2]: -3%; inhibition of growth at 10 µM (ACHN): 21%; inhibition of growth at 10 µM (OVCAR-3): 3%; inhibition of growth at 10 µM (SN12C): 17%; inhibition of growth at 10 µM (HCT-15): 8%
